Experiment [1] has as its target Glutamate NMDA receptor. Kind of experiment: Functional NMDA receptor antagonism expressed as inhibition of NMDA/glycine induced increase in cytosolic calcium in cultured rat cerebellar granule cells.
The target of experiment [2] is Glutamate NMDA receptor. Kind of experiment: Potency towards NMDA receptor measured as inhibition of (+)-[3-3H]MK-801 binding from synaptic plasma membrane obtained from rat cortex.

Experimental findings from ChEMBL document CHEMBL1131782, “Synthesis, biological activity, and absolute stereochemical assignment of NPS 1392: a potent and stereoselective NMDA receptor antagonist” (Bioorg Med Chem Lett, 1999) are described below.

Turning to `C[C@H](CN)C(c1cccc(F)c1)c1cccc(F)c1`, the IC50 on Glutamate NMDA receptor [1] is 384 nM; on Glutamate NMDA receptor [2], 2000 nM.

Turning to `C[C@@H](CN)C(c1cccc(F)c1)c1cccc(F)c1`, the IC50 was determined as 75 nM at Glutamate NMDA receptor [1] and 141 nM at Glutamate NMDA receptor [2].

On to `NCCC(c1cccc(F)c1)c1cccc(F)c1`, for which the IC50 amounted to 63 nM on Glutamate NMDA receptor [1] and 230 nM on Glutamate NMDA receptor [2].

As a reminder, the IC50 is the concentration needed to halve the response being measured.
